# Read-outs that look alike come from different tables or passages of the source.
# Legend:
# G. vaginalis biofilm = experiment: MBEC on pre-formed biofilms of ancestor isolates; format: cell-based, Gardnerella vaginalis
# Method: (§1) Gardnerella spp. (see figures for strain specification) was resuspended in brain heart infusion broth supplemented with 2% (w/v) gelatin, 0.5% yeast extract (w/v), 0.1% starch (w/v) and 0.25% glucose (w/v) (sBHIG). Passaged strains were resuspended in unbuffered NYCB supplemented with 1% glucose (w/v) (sNYCB). The OD600 was set to 0.1 (approx. 10^7-10^8 CFU/mL) and the cell suspension was diluted 1:10 in growth medium as input for biofilm formation. A total of 200 μL of the respective bacterial suspensions was added to 96-well flat bottom plates (tissue-culture treated, Sigma-Aldrich). The biofilms were grown under anaerobic conditions at 37° C. for 40 to 72 hours, depending on the isolate. Subsequently, the supernatant was removed, and the biofilm was treated with antimicrobials dissolved in sBHIG (at pH 5 for treatment with PM-477 (H2B10), and unbuffered for treatment with antibiotics) in 100 μL and incubated anaerobically at 37° C. for another 24 hours. After the treatment, the biofilms were washed twice with 200 μL 1x PBS and dissolved by vigorous pipetting (40x up and down). Serial dilutions of the dissolved cells were spotted on chocolate agar plates. The plates were incubated anaerobically for two to three days and the minimum biofilm eradication concentration (MBEC) of the endolysin or the antibiotics in use were calculated.
# (§2) Gardnerella dominated biofilms covering the human vaginal epithelial cells are now generally considered as a hallmark of BV. Thus, it was tested how effective antibiotics and PM-477 (H2B10) are in penetrating and killing in vitro pre-formed, 40-72 h old biofilms of various Gardnerella strains.
# passaged G. vaginalis = experiment: MIC on strains passaged with MDZ or MDZ-OH; format: cell-based, Gardnerella vaginalis; settings: Gardnerella vaginalis, 48 h
# Method: (§3) The minimum inhibitory concentration (MIC), which is a standard measure of the activity of antimicrobials, was determined according to the Clinical and Laboratory Standards Institute protocol (2018) Methods for Antimicrobial Susceptibility Testing of Anaerobic Bacteria (Carpenter et al., 2018). […] Controls for growth in the absence of antimicrobials were also included. OD600 was recorded by a microplate reader (Tecan, Grodig, Austria) after incubation at 37° C. for 48 h or, for some fast-growing strains, after incubation for 24 h. Absence of growth was defined as OD600≤0.14. […] MIC readout and MBC99.5 spotting were performed after 72 h incubation for H2B10B11. MBC99.5 is the minimum concentration of an antibacterial agent that results in bacterial death of all cells in suspension up to a defined limit of detection, resulting in killing of at least 99.5% of bacteria.
# The final volume of the reaction was 100 µL and the reactions were performed in triplicate in 384-well plates. The OD600 was measured using a microplate reader (Tecan, Grodig, Austria) to generate timepoint 0 h baseline values. The reactions were incubated anaerobically for 24 h, then the OD600 was measured again, and the MIC was measured as the lowest concentration with OD600<0.14. […] This process was repeated for a maximum of 25 rounds. In each round, the input CFU/mL was determined by quantitative plating.
# The susceptibility of Gardnerella strains before and after 8 to 9-times passaging with sub-MIC concentrations of MZD or MDZ-OH is shown in Table 4 below. All MICs determined after 48 h of incubation.
# Gardnerella piotii = experiment: MIC / MBC99.5 assessment in suspension; format: cell-based; settings: Gardnerella piotii
# Method: as §3, with “H2B10B11.” for “H2B10B11. MBC99.5 is the minimum concentration of an antibacterial agent that results in bacterial death of all cells in suspension up to a defined limit of detection, resulting in killing of at least 99.5% of bacteria.”
# (§4) However, topical intravaginal antibiotic administration is recommended for BV therapy, which allows to reach concentrations of active ingredients in the mg/mL range. […] Abbreviations: n.d., not determined; SJHB, St. Jan Hospital Bruges.
# (§5) MIC90 is defined as the MIC value for 90% of the tested strains. For PM-477 (H2B10), the resistance breakpoint is not defined, therefore a “% resistant” is not defined (n.d.).
# Gardnerella leopoldii = experiment: MIC / MBC99.5 assessment in suspension; format: cell-based; settings: Gardnerella leopoldii
# Method: as §3, with “H2B10B11.” for “H2B10B11. MBC99.5 is the minimum concentration of an antibacterial agent that results in bacterial death of all cells in suspension up to a defined limit of detection, resulting in killing of at least 99.5% of bacteria.”
# as §4, §5
# Gardnerella swidsinskii = experiment: microbe, parasite or virus in culture; format: cell-based
# Method: as §3, with “H2B10B11.” for “H2B10B11. MBC99.5 is the minimum concentration of an antibacterial agent that results in bacterial death of all cells in suspension up to a defined limit of detection, resulting in killing of at least 99.5% of bacteria.”
# as §4, §5
# [1] = tested on: MDZ or MDZ-OH passaged Gardnerella strains grown as biofilm; experiment: MBEC on biofilms of the six passaged strains, summary; format: cell-based, Gardnerella spp.
# Method: as §1
# [2] = tested on: passaged G. swidsinskii biofilm; experiment: MBEC on biofilms of passaged strains; format: cell-based, Gardnerella swidsinskii
# Method: as §1
# All MICs determined after 48 h of incubation.
# G. piotii biofilm = format: cell-based, Gardnerella piotii
# Method: as §1, §2
smiles,measurement,setting,value
"Cc1ncc([N+](=O)[O-])n1CCO [MDZ, metronidazole]",Eradication of biofilm-grown cells (FIG. 1),"G. vaginalis biofilm; G. vaginalis (ATCC14018), biofilm grown 40 h, treated 24 h",can be eradicated
same,MBEC,"G. vaginalis biofilm; ancestor G. vaginalis UGent FB049, pre-formed biofilm",2 to 8 µg/mL
same,MIC,"passaged G. vaginalis; read-out: MIC passaged, G. vaginalis (ATCC 14018T) passaged with sub-MIC MDZ, 48 h incubation",> 512 µg/mL
same,MIC,"passaged G. vaginalis; read-out: MIC passaged, G. vaginalis (UGent 09.07) passaged 8 times with MDZ-OH, 48 h incubation",> 2050 µg/mL
same,MIC,"passaged G. vaginalis; read-out: MIC passaged, G. vaginalis (UGent BV50) passaged with MDZ-OH, 48 h incubation",> 2050 µg/mL
same,MIC,"Gardnerella piotii; 48 h, read-out: MIC before passaging",32 µg/mL
same,MBC,Gardnerella piotii; G. piotii (BV049) UGent BV049.1,32 µg/mL
same,MBC,Gardnerella piotii; G. piotii (BV154) UGent BV154.1,32 µg/mL
same,MBC,Gardnerella piotii; G. piotii (FB041) UGent FB041,64 µg/mL
same,MIC,"Gardnerella piotii; G. piotii (FB041) UGent FB041, suspension, read-out: MIC",32 µg/mL
same,MBC,Gardnerella piotii; G. piotii (Gp17) UGent 18.01(T),64 µg/mL
same,MIC,"Gardnerella piotii; G. piotii (Gp17) UGent 18.01(T), suspension, read-out: MIC",32 µg/mL
same,MIC,"Gardnerella piotii; G. piotii (Gp22) UGent 21.28, suspension, read-out: MIC",64 µg/mL
same,MBC,Gardnerella piotii; G. piotii (P80275) UGent P80275,64 µg/mL
same,MIC,"Gardnerella piotii; G. piotii (P80275) UGent P80275, suspension, read-out: MIC",16 µg/mL
same,N resistant (%),"Gardnerella piotii; N=7, resistance ≥32 μg/mL MDZ",57%
same,N resistant,"Gardnerella piotii; N=7, resistance ≥32 μg/mL MDZ, ≥8 μg/mL CLI",4
same,MBC,Gardnerella piotii; G. piotii (BV140) UGent BV140.2,> 512 µg/mL
same,MIC,"Gardnerella leopoldii; G. leopoldii (BV217) UGent BV217.1, suspension, read-out: MIC",256 µg/mL
same,N resistant (%),"Gardnerella leopoldii; N=3, resistance ≥32 μg/mL MDZ",100%
same,N resistant,"Gardnerella leopoldii; N=3, resistance ≥32 μg/mL MDZ, ≥8 μg/mL CLI",3
same,MIC90,"Gardnerella leopoldii; N=3 strains, read-out: MIC90",> 256 µg/mL
same,MBC,Gardnerella leopoldii; read-out: MBC99.5,512 µg/mL
same,MBC99.5,Gardnerella swidsinskii; G. swidsinskii (BV7) UGent BV7.1,>512 µg/mL
same,MIC90,Gardnerella swidsinskii; Gardnerella swidsinskii,> 256 µg/mL
same,MIC,"Gardnerella swidsinskii; Gardnerella swidsinskii, 48 h, read-out: MIC before passaging, G. swidsinskii (GS 9838-1T), 48 h incubation",256 µg/mL
same,MIC,"Gardnerella swidsinskii; Gardnerella swidsinskii, 48 h, read-out: MIC before passaging, G. swidsinskii (UGent BV 7.1), 48 h incubation",256 µg/mL
same,MIC,"Gardnerella swidsinskii; Gardnerella swidsinskii, G. swidsinskii (BV7) UGent BV7.1, suspension, read-out: MIC",256 µg/mL
same,MIC,"Gardnerella swidsinskii; Gardnerella swidsinskii, G. swidsinskii (BV139) UGent BV139.3, suspension, read-out: MIC",256 µg/mL
same,MIC,"Gardnerella swidsinskii; Gardnerella swidsinskii, G. swidsinskii (Gs23) GS 10234, suspension",64 µg/mL
same,MIC,"Gardnerella swidsinskii; Gardnerella swidsinskii, G. swidsinskii (Gs24) GS 9838-1(T), suspension, read-out: MIC",256 µg/mL
same,MBC,"Gardnerella swidsinskii; Gardnerella swidsinskii, read-out: MBC99.5, G. swidsinskii (BV139) UGent BV139.3",256 µg/mL
same,MBC,"Gardnerella swidsinskii; Gardnerella swidsinskii, G. swidsinskii (Gs24) GS 9838-1(T), read-out: MBC99.5",> 512 µg/mL
same,Susceptibility of MDZ-passaged strains grown as biofilm (FIG. 4),[1]; 72 h pre-formed biofilms treated for 24 h,resistant
same,"MBEC, range over passaged strains","[1]; six strains passaged on MDZ or MDZ-OH, pre-formed biofilms, 24 h treatment",> 2048 µg/mL
same,MBEC passaged,[2]; G. swidsinskii (GS 9838-1T) passaged with MDZ-OH,>2048 µg/mL
same,MBEC passaged,[2]; G. swidsinskii (UGent BV 7.1) passaged with MDZ-OH,>2048 µg/mL
same,MBEC,"G. piotii biofilm; ancestor G. piotii UGent 18.01, pre-formed biofilm",8 µg/mL
same,MBEC,"G. piotii biofilm; ancestor G. piotii UGent 21.28, pre-formed biofilm",8 to 32 µg/mL

# Reference: patent US20250144186A1, “NOVEL THERAPEUTIC USES OF GARDNERELLA ENDOLYSINS” (priority 2022, published 2025)
